Test results: patent US20150313891A1, “NEURONAL NICOTINIC AGONISTS AND METHODS OF USE” (AbbVie Inc., priority 2014, published 2015)

Legend:
[1] = system: MPTP-lesioned monkeys; test: L-dopa-induced dyskinesias (LIDs) ratings in MPTP-lesioned monkeys; format: in vivo, squirrel monkeys (Saimiri sciureus)
From the text: The objective of the current study was to test the effect of the α7 nAChR agonist ABT-126 for its ability to reduce L-dopa-induced dyskinesias (LIDs) in MPTP-lesioned monkeys. […] All monkeys were orally gavaged with L-dopa/carbidopa twice daily, which led to the development of stable abnormal involuntary movements or dyskinesias. […] These latter two sets of monkeys had previously been given ABT-894 and ABT-107 but using somewhat different treatment regimens. The present study was done after a 7 wk washout period, when LIDs were similar in all groups. ABT-126 was administered orally in a small cracker 30 min before L-dopa (10 mg/kg) and carbidopa (2.5 mg/kg). […] ABT-126 was tested at 0.03, 0.10, 0.30 and 1.0 mg/kg, with each dose of ABT-126 tested for 1 or 2 wk. […] ABT-126 at 0.10 mg/kg reduced LIDs by ˜40%, while the 0.30 and 1.0 mg/kg ABT-126 doses decreased LIDs up to 60%. We also tested the effect of ABT-126 (1.0 mg/kg) for its ability to reduce LIDs at a higher dose of L-dopa (15 mg/kg)/carbidopa (3.75 mg/kg). The higher dose of L-dopa led to greater LID scores in vehicle treated monkeys. […] The effect of ABT-126 was most pronounced during the latter weeks, possibly because of a greater decline with continued drug treatment. A washout is in progress to determine if LIDs return to vehicle-treated levels after ABT-126 discontinuation. There was no effect of the drug on parkinsonism or cognitive ability. Adult male and female squirrel monkeys (Saimiri sciureus) (n=21) weighing 0.6-1.2 kg were obtained from World Wide Primates (Miami, Fla.). The monkeys were quarantined for one month, as mandated by California state regulations. All studies were performed according to the NIH Guide for the Care and Use of Laboratory Animals, and were approved by the Institutional Animal Care and Use Committee at SRI. Animals were housed separately in a room maintained at 27±3° C., with a 12:12-h light/dark cycle. Monkey chow, fruits, and vegetables were provided over the course of the day, with water freely available. After quarantine, all monkeys were trained to perform various motor and other tasks for future assessment of parkinsonism and other behaviors (Quik et al. 2013b, Zhang et al. 2013, Quik et al. 2007, Quik et al. 2013a). They were then injected with saline (n=5) or 2.0 mg/kg 1-methyl-4-phenyl-1,2,3,6-tetrahydropyridine sc (MPTP; Sigma-Aldrich, St. Louis, Mo.) dissolved in saline (n=21), as described (Quik et al. 2013b, Zhang et al. 2013, Quik et al. 2007, Quik et al. 2013a). […] These include spatial hypokinesia (use of available cage space), body bradykinesia (slowness in body movement), manual dexterity in both left and right hands, balance (ability to hold on to the cage bars), freezing, and action tremor as described (Quik et al. 2013b, Zhang et al. 2013, Quik et al. 2007, Quik et al. 2013a). MPTP injections were repeated (1.5-1.9 mg/kg sc per time) if the monkeys were not parkinsonian and to maintain parkinsonism. Parkinsonism was rated once weekly on Monday. The monkeys were next orally gavaged with L-dopa (10 mg/kg) plus carbidopa (2.5 mg/kg), twice daily 4.5 h apart 5 d per wk, as described (Quik et al. 2013b, Zhang et al. 2013, Quik et al. 2007, Quik et al. 2013a). While treated with L-dopa, monkeys were given only fruits and vegetables in the morning to enhance L-dopa absorption. Monkey chow, as well as more fruits and vegetables, were given several hours after the second dose of L-dopa. The monkeys were taped from 8:00 to 8:30 AM, before the first dose of L-dopa to evaluate baseline movements and then from 8:30 to 12:30 PM, following the morning L-dopa dose, to evaluate dyskinesias. LIDs were rated from the video recordings for a 1 min period every 30 min. […]

[2] = system: subjects with schizophrenia; test: Tolerability in subjects with schizophrenia; format: in vivo, human; details: doses up to 25 mg QD, including 10 mg QD and 25 mg QD
[3] = system: AD; test: Phase 2a study, symptomatic treatment of AD; format: in vivo, human
[4] = system: MPTP-lesioned monkeys; test: Parkinsonian ratings in MPTP-lesioned monkeys; format: in vivo, squirrel monkeys (Saimiri sciureus); details: for Parkinsonian scores Before L-dopa: 45 min before L-dopa; for Parkinsonian scores Before L-dopa / Parkinsonian scores After L-dopa: mean ± SEM, 5 monkeys; for Parkinsonian scores After L-dopa: 90 min after L-dopa (10 mg/kg)/carbidopa (2.5 mg/kg)
From the text: After quarantine, all monkeys were trained to perform various motor and other tasks for future assessment of parkinsonism and other behaviors (Quik et al. 2013b, Zhang et al. 2013, Quik et al. 2007, Quik et al. 2013a). […] Sigma-Aldrich, St. Louis, Mo.) dissolved in saline (n=21), as described (Quik et al. 2013b, Zhang et al. 2013, Quik et al. 2007, Quik et al. 2013a). […] These include spatial hypokinesia (use of available cage space), body bradykinesia (slowness in body movement), manual dexterity in both left and right hands, balance (ability to hold on to the cage bars), freezing, and action tremor as described (Quik et al. 2013b, Zhang et al. 2013, Quik et al. 2007, Quik et al. 2013a). MPTP injections were repeated (1.5-1.9 mg/kg sc per time) if the monkeys were not parkinsonian and to maintain parkinsonism. Parkinsonism was rated once weekly on Monday. […] These latter two sets of monkeys had previously been given ABT-894 and ABT-107 but using somewhat different treatment regimens. The present study was done after a 7 wk washout period, at which point LIDs were similar in all groups. […] It was provided in the drinking water starting at 50 μg/ml for 2 days, increased to 150 μg/ml for another two days and then maintained at 300 μg/ml. ABT-126 was tested at 0.03, 0.10, 0.30 and 1.0 mg/kg, with each dose of ABT-126 tested for 1 or 2 wk. Statistical analyses were done using GraphPad Prism. One- or two-way ANOVA was used for multiple group comparisons followed by a Newman-Keuls or Bonferroni post hoc test. Differences in rating scores between groups were analyzed using nonparametric tests (Mann-Whitney test). Data for rating scores was provided as the median (nonparametric) or mean±SEM (parametric). A value of P ≦0.05 is considered statistically significant. Values expressed are the mean±SEM of the indicated number of monkeys.

[5] = system: MPTP-lesioned monkeys; test: Cognitive testing, object retrieval task; format: in vivo, squirrel monkeys (Saimiri sciureus); details: for Attempts / Latency: 90 min after first L-dopa gavage, mean ± SEM, 5 monkeys
From the text: To evaluate cognitive performance, an object retrieval task was used that measures a component of prefrontal cortex dependent cognitive control involving inhibition of an initial learned response after subsequent spatial reversals (Lyons et al. 2000, Lyons et al. 2004, Zhang et al. 2013). The apparatus used consists of a clear Plexiglas box (8×8×8 cm) with one open side, containing a small piece of marshmallow (Lyons et al. 2000, Lyons et al. 2004). The box is locked into place on a metallic platform hooked onto the front of the monkey cage. Control and MPTP-lesioned monkeys were scored for the average time and number of trials required to retrieve the marshmallow in 30 sec. The effect of ABT-126 administration was tested once weekly on Friday. […] These latter two sets of monkeys had previously been given ABT-894 and ABT-107 but using somewhat different treatment regimens. The present study was done after a 7 wk washout period, at which point LIDs were similar in all groups. ABT-126 was administered orally in a small cracker 30 min before L-dopa/carbidopa twice daily. […] It was provided in the drinking water starting at 50 μg/ml for 2 days, increased to 150 μg/ml for another two days and then maintained at 300 μg/ml. ABT-126 was tested at 0.03, 0.10, 0.30 and 1.0 mg/kg, with each dose of ABT-126 tested for 1 or 2 wk. Statistical analyses were done using GraphPad Prism. One- or two-way ANOVA was used for multiple group comparisons followed by a Newman-Keuls or Bonferroni post hoc test. Differences in rating scores between groups were analyzed using nonparametric tests (Mann-Whitney test). Data for rating scores was provided as the median (nonparametric) or mean±SEM (parametric). A value of P ≦0.05 is considered statistically significant. Values expressed are the mean±SEM of the indicated number of monkeys.

[6] = ABT-126 1.0 mg/kg orally, higher L-dopa (15 mg/kg)/carbidopa (3.75 mg/kg), wk 6
[7] = 0.03 mg/kg ABT-126 orally, set 1
[8] = 0.03 mg/kg ABT-126 orally, set 2
[9] = ABT-126 orally, MPTP-lesioned L-dopa-treated monkeys
[10] = 0.3 mg/kg ABT-126 orally, set 1
[11] = 0.3 mg/kg ABT-126 orally, set 2
[12] = 300 μg/ml nicotine in the drinking water

c1ccc(-c2nnc(O[C@@H]3C4CC5C[C@H]3C[N@](C5)C4)s2)cc1 [ABT-126, (4s)-4-(5-phenyl-1,3,4-thiadiazol-2-yloxy)-1-azatricyclo[3.3.1.1^3,7]decane]
effect on LIDs ([1]; ABT-126 0.03 mg/kg orally 30 min before L-dopa (10 mg/kg)/carbidopa (2.5 mg/kg)): no significant effect | reduction of LIDs ([1]; ABT-126 0.10 mg/kg orally 30 min before L-dopa (10 mg/kg)/carbidopa (2.5 mg/kg)): ~40% | hourly time course of LIDs, FIG. 2 ([1]; ABT-126 0.3 mg/kg): maximal decline | decrease of LIDs ([1]; ABT-126 0.30 mg/kg orally 30 min before L-dopa (10 mg/kg)/carbidopa (2.5 mg/kg)): up to 60% | decrease of LIDs ([1]; ABT-126 1.0 mg/kg orally 30 min before L-dopa (10 mg/kg)/carbidopa (2.5 mg/kg)): up to 60% | reduction of LIDs after the afternoon dose of L-dopa [1, 6]: 60% | reduction of LIDs after the morning dose of L-dopa [1, 6]: 70% | decrease of LIDs, total dyskinesia scores (% vehicle), FIG. 1 ([1]; increasing doses of ABT-126 (0.03 to 1.0 mg/kg), each for a wk, L-dopa 10 mg/kg plus carbidopa 2.5 mg/kg): ≤ 70% | tolerability [2]: well tolerated | efficacy in the symptomatic treatment of AD [3]: signal for efficacy | Parkinsonian scores Before L-dopa [4, 7]: 4.2 ± 0.4 | Parkinsonian scores After L-dopa [4, 7]: 2.6 ± 0.4 | Parkinsonian scores Before L-dopa [4, 8]: 3.4 ± 0.7 | Parkinsonian scores After L-dopa [4, 8]: 2.2 ± 0.2 | effect on parkinsonism [4, 9]: no effect | Attempts [5, 10]: 22.8 ± 3.2 | Latency [5, 10]: 21.2 ± 2.8 s | Attempts [5, 11]: 18.0 ± 2.5 | Latency [5, 11]: 18.3 ± 3.3 s | effect on cognitive ability [5, 9]: no effect

CN1CCCC1c1cccnc1 (stereo not drawn) [Nicotine, nicotine, reference compound]
Parkinsonian scores Before L-dopa [4, 12]: 3.6 ± 0.4 | Parkinsonian scores After L-dopa [4, 12]: 2.4 ± 0.4 | Attempts [5, 12]: 23.8 ± 2.8 | Latency [5, 12]: 19.2 ± 2.2 s
